Test results taken from PubChem BioAssay AID652053 (Broad Institute, 2013).

System: Huh7 psiCHECK-miR122 Renilla luciferase reporter, 48 h
Test: miR-122 inhibitors in Huh7 reporter cells, dose response, cell-based, Huh7 psiCHECK-miR122, Renilla luciferase, cherry-pick (AID 652053)

SMILES	AC40 [µM]
CCc1ccc(-c2cc(C)no2)cc1S(=O)(=O)NC(C)Cc1ccco1 (stereo not given)	< 0.26
CCCCNS(=O)(=O)c1ccc(NC(=O)c2cccs2)cc1	1.09
O=S(=O)(NCC1CCCO1)c1ccc(Oc2ccccc2)cc1 (stereo not given)	5.86
O=C(c1ccccc1F)N1C[C@H]2[C@@H](c3ccccc31)[C@@H](CO)N2C(=O)c1ccc(F)cc1	2.4
O=C(Nc1ccc2c(c1)CCC2)c1cc(S(=O)(=O)Nc2ccc(F)cc2)c(Cl)cc1Cl	4.1
COc1ccc(Cl)cc1N(CC(=O)N1CCCC1)S(=O)(=O)c1ccc(C)cc1	2.49
COc1cc2oc3ccccc3c2cc1N(CC(=O)N(C)C)S(=O)(=O)c1ccccc1	4.54
Cc1ccc(C(=O)Nc2ccccc2-c2ccccc2)cc1S(=O)(=O)Nc1ccccc1	3.64
Cc1c(C)c(C)c(S(=O)(=O)NCCc2ccccn2)c(C)c1C	1.69
COc1ccc(S(=O)(=O)Nc2cc(C)c(O)c(S(=O)(=O)c3ccccc3)c2)cc1	29.6
O=C(NC1CCCC1)C(c1ccccc1)N(Cc1ccc2c(c1)OCO2)C(=O)Cc1cccs1 (stereo not given)	6.85
O=C(c1ccc(F)cc1)N1C[C@H]2[C@@H](c3ccccc31)[C@@H](CO)N2C(=O)c1ccccc1	17.6
O=C(N/N=C/c1ccc(Cl)s1)C(O)c1ccccc1 (stereo not given)	1.17
O=S(=O)(NCCc1ccccc1)c1ccc(F)cc1Br	1.45
COc1ccc(C(=O)Nc2cccc(S(=O)(=O)NCc3ccco3)c2)cc1	0.822
Cc1ccc(NC(=O)C(=O)c2c(-c3ccccc3)cc3ccccn23)cc1S(=O)(=O)N1CCOCC1	27.9
C[C@H](CO)N1C[C@H](C)[C@@H](CN(C)Cc2ccc3c(c2)OCO3)Oc2c(NC(=O)C3CCCCC3)cccc2C1=O	5.43
Cc1ccc(C)c(S(=O)(=O)Nc2cc3c4c(c2)CCC(=O)N4CCC3)c1	0.678
CN1c2ccc(-c3ccc(F)cc3)cc2[C@H]2[C@H](CCN2S(=O)(=O)c2cccc(F)c2)[C@H]1CO	8.83
CCc1c(C(=O)NC2CCCc3ccccc32)[nH]c(C)c1C(C)=O (stereo not given)	9
Cc1ccccc1OCC(=O)NNC(=O)Nc1ccc(Cl)cc1	17.4
COc1ccc(-c2nc3ccccn3c2NC2CCCCC2)cc1SC1CCCCC1	7.13
CCc1cccc(NS(=O)(=O)c2ccc3c(c2)NC(=O)CO3)c1	7
CSc1ccc(S(=O)(=O)NC2CCCCCC2)cc1	1.72
Cc1cc(S(=O)(=O)Nc2cccc(Cl)c2)c(C)s1	0.486

SMILES	AC40 [µM]
CC1CCCCN1C(=O)c1cc2nc(-c3ccccc3)cc(-c3ccccc3)n2n1 (stereo not given)	2.46
COc1cccc(C2(c3cccc(OC)c3)CC2C(=O)Nc2ccc(F)cc2)c1 (stereo not given)	2.68
CC(C)(C)C(=O)Nc1cc(S(=O)(=O)Nc2ccc(Cl)cc2)ccc1O	13.8
CC(=O)c1cccc(NS(=O)(=O)c2ccc3c(c2)oc(=O)n3C)c1	7.31
Cc1ccc(S(=O)(=O)Nc2ccc3c(c2)CC(=O)N([C@@H](C)CO)C[C@@H](C)[C@H](CN(C)Cc2ccc(C(=O)Nc4ccccc4N)cc2)O3)cc1	32.4
COc1ccccc1NS(=O)(=O)c1cc(NC(=O)c2cccc(S(=O)(=O)N(C)C)c2)ccc1N1CCOCC1	0.776
Cc1nc2cc(NS(=O)(=O)c3c(C)c(C)cc(C)c3C)ccc2s1	< 0.26
COc1ccc(C)cc1S(=O)(=O)NC1CCCCCC1	2.03
Cc1ccnc(NCc2cc(C)ccc2O)c1	29.8
COc1cc(NS(=O)(=O)c2ccc3c(c2)C(C)(C)C(=O)N3C)cc(OC)c1	2.85
Cc1cc(C(=O)Nc2cccc3c2O[C@@H](CN(C)CC2CCCCC2)[C@@H](C)CN([C@H](C)CO)C3=O)n(C)n1	2.41
C[C@@H]1CN([C@H](C)CO)C(=O)c2cc(N(C)C)ccc2O[C@H]1CN(C)Cc1ccc(C(=O)Nc2ccccc2N)cc1	1.96
COc1ccc(-c2cc(C)no2)cc1S(=O)(=O)NCC(C)c1ccccc1 (stereo not given)	2.74
C[C@@H]1CN([C@H](C)CO)C(=O)c2cccc(NC(=O)NC3CCCCC3)c2O[C@H]1CN(C)Cc1ccc(Cl)c(Cl)c1	0.891
COc1ccc(NS(=O)(=O)c2cccc(Cl)c2)cc1S(=O)(=O)N1CCCCC1	4.35
C[C@H](CO)N1C[C@H](C)[C@@H](CN(C)CC2CCCCC2)Oc2c(NC(=O)C3CC3)cccc2C1=O	0.602
CCNS(=O)(=O)c1cc(Br)ccc1OC	3.4
COc1ccc(C(=O)Nc2ccc(S(=O)(=O)NCc3ccco3)cc2)cc1OC	4.75
Cc1cccc(NS(=O)(=O)c2ccc(C)c(C(=O)OCC(=O)Nc3cc(C)on3)c2)c1	4.46
CC(C)CNS(=O)(=O)c1ccc(OCC(=O)Nc2ccc3c(c2)OCO3)c(Cl)c1	8.36
COc1ccc(S(=O)(=O)N2CC[C@@H]3[C@@H](CO)N(C)c4ccc(-c5ccc(F)cc5)cc4[C@@H]32)cc1	6.93
Cc1ccc(NC(=O)CNC(=O)c2cccs2)cc1S(=O)(=O)Nc1ccc(Cl)cc1	3.31
COc1cc(NS(=O)(=O)c2cc3c(cc2C)NC(=O)CO3)cc(OC)c1	4.02
CC(NC(=O)COc1ccccc1)C(=O)OCC(=O)c1cc2ccccc2o1 (stereo not given)	33.5
CCc1ccc(-c2cc(C)no2)cc1S(=O)(=O)NCc1ccco1	1.61

SMILES	AC40 [µM]
Nc1ncc(Br)cc1S(=O)(=O)NC1CCCCC1	2.19
CCCC(C)NS(=O)(=O)c1ccc(OC)c(C)c1 (stereo not given)	10
CC(=O)Nc1ccc(NS(=O)(=O)c2ccc3ccccc3c2)cc1	14.3
COc1cc(C)c(C(C)C)cc1S(=O)(=O)n1cnc(C)c1	2.65
CCCC(=O)Nc1nc2ccc(S(=O)(=O)N3CCCCC3)cc2s1	8.84
C[C@H](CO)N1C[C@H](C)[C@H](CN(C)Cc2ccc(C(=O)Nc3ccccc3N)cc2)Oc2ccc(NS(=O)(=O)c3ccc(F)cc3)cc2CC1=O	7.93
Cc1cc(Cl)c(S(=O)(=O)NCc2ccccc2)cc1OCC(N)=O	8.54
O=C(c1ccccc1F)N1C[C@@H]2[C@H](c3ccccc31)[C@H](CO)N2C(=O)c1ccc(F)cc1	21
O=S(=O)(/N=C(/Nc1ccc(Cl)c(S(=O)(=O)Nc2ccccc2Cl)c1)c1ccc(F)cc1)c1ccccc1	26.8
C[C@H](CO)N1C[C@H](C)[C@@H](CN(C)C(=O)Nc2ccc(F)cc2)Oc2c(NS(=O)(=O)c3ccccc3)cccc2C1=O	20.4
Cc1ccc(NS(=O)(=O)c2cc(C(=O)Nc3cccc([N+](=O)[O-])c3)ccc2C)cc1	2.5
O=S(=O)(Nc1ccc(C(O)(C(F)(F)F)C(F)(F)F)cc1)c1cccc2ccccc12	1.45
CN1CC(c2ccc(C#N)cc2)C2(COc3ccccc3C2=O)C12C(=O)Nc1ccccc12 (stereo not given)	3.69
Cc1ccc(C(=O)Nc2ccccc2C(=O)O)cc1S(=O)(=O)Nc1ccccc1	2.74
COc1ccc(-c2c(O)c(C#N)c(-c3ccccc3)n(-c3ccc(OC)cc3)c2=O)cc1	20
COCC#Cc1ccc2c(c1)O[C@H](CN(C)Cc1ccc3c(c1)OCO3)[C@@H](C)CN([C@@H](C)CO)S2(=O)=O	13.8
COc1ccc(OC)c(S(=O)(=O)Nc2cccc(-c3ccc4nncn4n3)c2)c1	2.4
Cc1cc(C)cc(NS(=O)(=O)c2cc(Br)cnc2N)c1	0.656
CCOc1ccccc1N1CCN(C(=O)c2cc3ccccc3cc2OC)CC1	4.78
Cc1ccc(O)c(NC(=O)c2cccc(S(=O)(=O)N3CCCCC3)c2)c1	2.39
CCOc1ccc(NS(=O)(=O)c2ccc(NC(=S)NC(=O)CC(C)C)cc2)cc1	1.68
C[C@@H]1CN([C@H](C)CO)C(=O)c2cc(N(C)C)ccc2O[C@@H]1CN(C)S(=O)(=O)c1ccc(Cl)cc1	6.57
C[C@@H]1CN([C@H](C)CO)C(=O)c2cccc(NS(C)(=O)=O)c2O[C@@H]1CN(C)Cc1ccc(C(F)(F)F)cc1	12.5
COc1cc(NS(=O)(=O)c2ccc(C)c(C)c2)c(OC)cc1Cl	15.2
Cc1ccc(C(=O)NCc2ccco2)cc1S(=O)(=O)Nc1cccc(C)c1C	6.29

SMILES	AC40 [µM]
COc1cc(C)c(S(=O)(=O)Nc2ccccc2F)cc1C	3.14
C/C(=N\Nc1ccccn1)c1ccc(S(=O)(=O)NCc2ccco2)cc1	6.97
COc1ccccc1NS(=O)(=O)c1cc(NC(=O)Nc2ccc(Cl)cc2Cl)ccc1N1CCCCC1	1.49
C[C@H]1CN([C@@H](C)CO)C(=O)c2cccc(NC(=O)C3CCOCC3)c2O[C@@H]1CN(C)Cc1ccc2c(c1)OCO2	18.2
Cc1cc(C)c(S(=O)(=O)Nc2ccc(O)cc2)cc1C	3.45
COc1ccc(NS(=O)(=O)c2ccc3ccccc3c2)c2ncccc12	5.19
C[C@H](CO)N1C[C@H](C)[C@H](CN(C)Cc2ccc3c(c2)OCO3)Oc2c(NC(=O)C3CCOCC3)cccc2C1=O	10.5
Cc1cc(C(=O)Nc2cccc3c2O[C@@H](CN(C)CC2CCCCC2)[C@@H](C)CN([C@@H](C)CO)C3=O)n(C)n1	5.85
O=S(=O)(Nc1ccc2cn[nH]c2c1)c1cc(Br)ccc1Br	4.32
Cc1ccc(C)c(S(=O)(=O)NCCCc2ccccc2)c1	3.15
CC(NC(=S)Nc1ccc(Cl)cc1Cl)C(c1cccs1)N1CCCC1 (stereo not given)	23.8
Cc1cc(S(=O)(=O)Nc2ccc3cn[nH]c3c2)c(C)cc1Cl	2.11
CCOCC(=O)Nc1c(C(=O)N2CCN(c3ncccn3)CC2)oc2ccccc12	0.431
COc1ccccc1NS(=O)(=O)c1cc(NC(=O)c2cccnc2)ccc1N1CCCCC1	< 0.26
Cc1ccc(NS(=O)(=O)c2cc3c4c(c2)CC(=O)N4CCC3)cc1C	2.61
CC(=O)c1ccc(NS(=O)(=O)c2c(C)cc(C)cc2C)cc1	1.82
CN1c2ccc(-c3cccc(F)c3)cc2[C@H]2[C@H](CCN2C(=O)c2ccccc2F)[C@H]1CO	0.528
O=S(=O)(c1ccccc1F)N1CC[C@@H]2[C@@H](CO)Nc3ccc(-c4ccc(F)cc4)cc3[C@@H]21	5.7
CCc1ccc(-c2cc(C)no2)cc1S(=O)(=O)NCCc1ccc(OC)c(OC)c1	7.43
CCOC(=O)N1CCN(S(=O)(=O)c2cc(OCC)ccc2OCC)CC1	4.56
CCOc1ccccc1C(=O)N1CCN(c2cccc(Cl)c2)CC1	11.6
CCCCOCCCNC(=S)Nc1ccc(S(=O)(=O)N2CCOCC2)cc1	11
Cc1nn(C)c(C)c1S(=O)(=O)NCc1cccs1	13.9
CCCNC(=O)C[C@H]1CC[C@H]2[C@H](COc3ccc(NC(=O)Cc4cccs4)cc3C(=O)N2C)O1	2.21
Fc1ccccc1Cn1cc(C(=S)N2CCOCC2)c2ccccc21	12.4
